The source of these data is US8344018B2, “Oxindolyl inhibitor compounds” (Gilead Sciences, Inc., priority 2008, dated 2013).

SMILES strings stand for the structures. Values joined by “and” are separate entries in the source; they are usually repeats but may differ in a detail not shown here. Equal entries are not always repeated.

The target in one assay is HDAC 1 (Homo sapiens, UniProt Q13547). Nature of the assay: HDAC 1 fluorescence assay with about 3 hours preincubation. In kind it is biochemical. To be noted: 3-hour preincubation of enzyme and compound; two numbers = two different lots of the compound; read-out: HDAC 1 inhibitory activity (IC50 [μM]) (3-hour preincubation). The protocol: The second assay is similar to the first assay described above, except that preincubation is carried out for about 3 hours after the enzyme is introduced. The test compound was suspended in, and titrated in DMSO. It was then spotted into a 384-well test plate. The enzyme, HDAC 1, was diluted in the same assay buffer as used in the previous assay and added to the pre-spotted compound. The enzyme/compound mix was incubated at room temperature for about 3 hours. The peptide substrate containing a fluorophore/quencher pair was diluted in the assay buffer and added to the compound/enzyme mix initiating the reaction. The reaction incubated at room temperature for 45 minutes. A concentrated developer solution was diluted in the assay buffer, and added to the reaction. The reaction was incubated at room temperature for about 15 minutes and relative fluorescence was read on an instrument reader.
Where two numbers are given, the values are reported for measurements on two different lots of the compound.

The target of a further assay is CDK2 (Homo sapiens, UniProt P24941). The assay is described as follows: CDK2 inhibition. Type of assay: biochemical. Particulars: two numbers = two different lots of the compound.

Broadly, the IC50 is the midpoint of a concentration-inhibition curve.

Chain of HDAC 1 (Q13547 whole entry, species assumed): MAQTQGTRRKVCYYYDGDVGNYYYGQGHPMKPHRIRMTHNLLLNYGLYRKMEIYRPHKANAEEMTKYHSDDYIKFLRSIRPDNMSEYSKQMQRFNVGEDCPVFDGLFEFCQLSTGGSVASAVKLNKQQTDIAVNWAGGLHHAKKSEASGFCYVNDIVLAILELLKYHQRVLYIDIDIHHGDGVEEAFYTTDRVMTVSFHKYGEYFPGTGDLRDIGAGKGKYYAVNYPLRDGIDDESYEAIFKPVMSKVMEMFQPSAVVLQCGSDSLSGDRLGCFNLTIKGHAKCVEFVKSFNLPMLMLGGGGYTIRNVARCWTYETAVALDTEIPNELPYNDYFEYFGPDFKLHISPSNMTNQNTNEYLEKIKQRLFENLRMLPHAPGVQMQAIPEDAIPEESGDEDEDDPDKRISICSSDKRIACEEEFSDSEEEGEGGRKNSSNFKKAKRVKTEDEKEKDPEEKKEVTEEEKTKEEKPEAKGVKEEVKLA

Turning to `COC(=O)c1ccc2c(c1)/C(=C(\C)Nc1ccc(C(=O)Nc3ccccc3N)cc1)C(=O)N2` [Example 1, 3-{1-[4-(2-Amino-phenylcarbamoyl)-phenylamino]-ethylidene}-2-oxo-2,3-dihydro-1H-indole-5-carboxylic acid methyl ester], the IC50 on HDAC 1 is 0.033 µM; at CDK2, 0.043 µM.

Take `COC(=O)c1ccc2c(c1)/C(=C/Nc1ccc(C(=O)Nc3ccccc3N)cc1)C(=O)N2` [Example 2, 3-{[4-(2-Amino-phenylcarbamoyl)-phenylamino]-methylene}-2-oxo-2,3-dihydro-1H-indole-5-carboxylic acid methyl ester]: the concentration for half-maximal inhibition (IC50) came to 0.17 µM at HDAC 1 and 0.07 µM on CDK2.

As for `C/C(Nc1ccc(C(=O)Nc2ccccc2N)cc1)=C1/C(=O)Nc2ccc(C#N)cc21` [Example 3, N-(2-Amino-phenyl)-4-[1-(5-cyano-2-oxo-1,2-dihydro-indol-3-ylidene)-ethylamino]-benzamide], the concentration for half-maximal inhibition (IC50) at HDAC 1 is 0.029 µM and 0.021 µM; against CDK2, 0.01 µM and 0.02 µM.

As to `CC(=O)c1ccc2c(c1)/C(=C(\C)Nc1ccc(C(=O)Nc3ccccc3N)cc1)C(=O)N2` [Example 4, 4-[1-(5-Acetyl-2-oxo-1,2-dihydro-indol-3-ylidene)-ethylamino]-N-(2-amino-phenyl)-benzamide], the IC50 on HDAC 1 was 0.064 µM and 0.03 µM; on CDK2 it was 0.01 µM.

`C/C(Nc1ccc(C(=O)Nc2ccccc2N)cc1)=C1/C(=O)Nc2ccc(C(=O)C(C)C)cc21` [Example 5, N-(2-Amino-phenyl)-4-[1-(5-isobutyryl-2-oxo-1,2-dihydro-indol-3-ylidene)-ethylamino]-benzamide]: the concentration for half-maximal inhibition (IC50) at HDAC 1 turned out to be 0.335 µM; at CDK2, 0.02 µM.

`C/C(Nc1ccc(C(=O)Nc2ccccc2N)cc1)=C1/C(=O)Nc2ccc(S(=O)(=O)N3CCOCC3)cc21` [Example 6, N-(2-Amino-phenyl)-4-{1-[5-(morpholine-4-sulfonyl)-2-oxo-1,2-dihydro-indol-3-ylidene]-ethylamino}-benzamide]: the figures for the IC50 at HDAC 1 and at CDK2 were 0.186 µM and 0.52 µM, respectively.

As for `C/C(Nc1ccc(C(=O)Nc2ccccc2N)cc1)=C1/C(=O)Nc2ccc(-c3csc(C)n3)cc21` [Example 7, N-(2-Amino-phenyl)-4-{1-[5-(2-methyl-thiazol-4-yl)-2-oxo-1,2-dihydro-indol-3-ylidene]-ethylamino}-benzamide], the 50% inhibitory concentration (IC50) on HDAC 1 was 0.232 µM; against CDK2, over 40 µM.

As for `CC(Nc1ccc(C(=O)Nc2ccccc2N)cc1)=C1C(=O)Nc2ccc(S(C)(=O)=O)cc21` [Example 8, N-(2-Amino-phenyl)-4-[1-(5-methanesulfonyl-2-oxo-1,2-dihydro-indol-3-ylidene)-ethylamino]-benzamide], the figures for the IC50 on HDAC 1 and against CDK2 were 0.1 µM and 0.13 µM, respectively.

Turning to `CN(C)CCNC(=O)c1ccc2c(c1)/C(=C/Nc1ccc(C(=O)Nc3ccccc3N)cc1)C(=O)N2` [Example 9, 3-{[4-(2-Amino-phenylcarbamoyl)-phenylamino]-methylene}-2-oxo-2,3-dihydro-1H-indole-5-carboxylic acid (2-dimethylamino-ethyl)-amide], the concentration for half-maximal inhibition (IC50) on HDAC 1 turned out to be 0.063 µM; against CDK2, 0.25 µM.

Regarding `C/C(Nc1ccc(C(=O)Nc2ccccc2N)cc1)=C1/C(=O)Nc2ccc(C(=O)O)cc21` [Example 10, 3-{1-[4-(2-Amino-phenylcarbamoyl)-phenylamino]-ethylidene}-2-oxo-2,3-dihydro-1H-indole-5-carboxylic acid], the 50% inhibitory concentration (IC50) was 0.181 µM at HDAC 1 and 0.44 µM against CDK2.

For `COC(=O)c1ccc2c(c1)/C(=C(\C)Nc1ccc(C(=O)NO)cc1)C(=O)N2` [Example 11, 3-[1-(4-Hydroxycarbamoyl-phenylamino)-ethylidene]-2-oxo-2,3-dihydro-1H-indole-5-carboxylic acid methyl ester], the values for the half-inhibitory concentration (IC50) on HDAC 1 and against CDK2 were 0.635 µM and over 40 µM, respectively.

With `C/C(Nc1ccc(C(=O)Nc2ccccc2N)cc1)=C1/C(=O)Nc2ccc(C(=O)N(C)C)cc21` [Example 12, 3-{1-[4-(2-Amino-phenylcarbamoyl)-phenylamino]-ethylidene}-2-oxo-2,3-dihydro-1H-indole-5-carboxylic acid dimethylamide], the IC50 at HDAC 1 turned out to be 0.071 µM; on CDK2, 0.34 µM.

Turning to `C/C(Nc1ccc(C(=O)Nc2ccccc2N)cc1)=C1/C(=O)Nc2ccc(C(C)O)cc21` (centres unmarked) [Example 13, N-(2-Amino-phenyl)-4-{1-[5-(1-hydroxy-ethyl)-2-oxo-1,2-dihydro-indol-3-ylidene]-ethylamino}-benzamide], the IC50 at HDAC 1 was 0.036 µM; at CDK2, 1.01 µM.
